Reference: patent publication US7008922B2, “H-Y antigen” (Rijksuniversiteit te Leiden, priority 1995, dated 2006)
Where a SMILES comes first, the peptide text is derived from it.

Experiments:
[1] = biological target: purified HLA-B7 (Homo sapiens, UniProt P01889); assay: Inhibition of binding of iodinated standard peptide to purified HLA-B7; conditions: iodinated endogenous B7 peptide […]
Procedure: Binding of synthetic peptides to purified HLA-B7. HPLC-purified test peptides were assayed for the ability to inhibit the binding of the iodinated endogenous B7 peptide […] (SEQ ID NO:4) to purified HLA-B7 as previously described (40). (♦), SMCY peptide […] (SEQ ID NO:1); (▪) SMCX peptide […] (SEQ ID NO:3); (Δ), […] (SEQ ID NO:5), an endogenous peptide bound to HLA-B7; (x) […] (SEQ ID NO.6), an endogenous peptide bound to HLA-A2.1 as the negative control.
The corresponding peptide derived from the sequence of the X chromosomal homolog, SMCX, has substitutions of A for S at position 3 and Q for R at position 8. […] Thus, the significant difference in the ability of the SMCY and SMCX peptides to sensitize targets for T cell recognition is almost entirely due to the fine specificity of the T cell receptor, rather than to differences in MHC binding affinities. The SMCX peptide is also present in naturally processed peptide extracts of HLA-B7, although its abundance is only 25% of that of the SMCY peptide (33). Based on all of this information, it is concluded that the peptide epitopes representing the HLA-B7 restricted H-Y antigen is derived from the protein encoded by SMCY, which is also true for the HLA-A2.1 recognized peptide, also encoded by SMCY.

[2] = tested on: T2-B7 cells; assay: H-Y epitope reconstitution, 51Cr release assay with HLA-B7-restricted H-Y specific CTL clone 5W4; format: cell-based, human; conditions: T2-B7 cells sensitized with synthetic peptide, effector to target ratio 10 to 1, read-out: peptide concentration at which half-maximal lysis was achieved
Excerpt: Reconstitution of the H-Y epitope with HPLC fractionated peptides extracted from HLA-B7 molecules. (A) HLA-B7 molecules were immunoaffinity purified from […] H-Y positive JY cells. Peptides were eluted from B7 molecules with 10% acetic acid, pH 2.2, filtered through a 10 kD cut-off filter and fractionated on a C18 reverse phase column. Buffer A was 0.1% heptafluorobutyric acid (HFBA); buffer B was 0.1% HFBA in acetonitrile. The gradient consisted of 100% buffer A (0–20 mm), 0 to 12% buffer B (20 to 25 mm), and 12 to 50% buffer B (25 to 80 mm) at a flow rate of 200 μl/min. 60 fractions of 200 μl each were collected from 20 to 80 mm. […]
H-Y epitope reconstitution with synthetic peptides. […] Purity was established on an analytical RP column and the quantity of each peptide was confirmed by comparing the area of the peak with that of a standard peptide. […]
To isolate endogenously processed H-Y peptides, HLA-B7 molecules were purified by affinity chromatography from the H-Y positive, B lymphoblastoid cell line, JY (29). […] Although a single active peak of reconstituting activity was also observed from this separation (FIG. 1B, fraction 14, 15 and 16), it still contained more than 100 distinct peptide species, as assessed by electrospray ionization tandem mass spectrometry. […]

[3] = tested on: HLA-A2.1 restricted H-Y specific T cell clones; assay: H-Y reconstitution assay with HLA-A2.1 restricted H-Y specific T cell clones R416 and 1R35; format: cell-based, human
Excerpt: HLA-A2 molecules were immunoaffinity purified from 10^10 DM cells. Peptides were eluted according to the methodology as described in legend to FIG. 1.
In the same manner as described above for the HLA-B7 restricted T-cell clone, the peptide recognized by two HLA-A2.1 T-cell clones was identified. In short the HLA-A2.1 restricted H-Y specific T cell clone R416 recognizes HPLC fraction 34, the HLA-A2.1 restricted H-Y specific T clone 1R35 recognizes HPLC fractions 36 and 39 (FIG. 6).

Sequence of purified HLA-B7 (P01889 25-362): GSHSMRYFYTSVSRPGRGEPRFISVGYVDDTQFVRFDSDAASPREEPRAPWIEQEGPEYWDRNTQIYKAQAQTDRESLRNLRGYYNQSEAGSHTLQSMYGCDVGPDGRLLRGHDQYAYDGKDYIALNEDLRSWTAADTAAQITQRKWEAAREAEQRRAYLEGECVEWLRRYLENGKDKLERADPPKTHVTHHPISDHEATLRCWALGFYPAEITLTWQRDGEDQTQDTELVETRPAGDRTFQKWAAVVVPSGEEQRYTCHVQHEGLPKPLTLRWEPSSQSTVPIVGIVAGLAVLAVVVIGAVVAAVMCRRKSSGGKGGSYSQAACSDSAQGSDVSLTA
Sequence of purified HLA-B7 (P61769 21-119 partner): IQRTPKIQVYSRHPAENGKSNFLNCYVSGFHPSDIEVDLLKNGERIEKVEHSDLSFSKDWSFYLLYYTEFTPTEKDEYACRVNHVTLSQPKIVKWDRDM

`CC(C)C[C@H](NC(=O)[C@H](CCC(=O)O)NC(=O)[C@H](C)NC(=O)[C@H](CCC(N)=O)NC(=O)[C@H](C)NC(=O)[C@H](CCCCN)NC(=O)[C@H](CC(=O)O)NC(=O)[C@@H](NC(=O)[C@H](C)NC(=O)[C@@H]1CCCN1C(=O)[C@@H](N)CO)C(C)C)C(=O)O` [SMCX peptide, reference compound] (H-SPAVDKAQAEL-OH) gave an IC50 [1] of 140 nM.

In the case of `CC(C)C[C@H](NC(=O)[C@H](CCC(=O)O)NC(=O)[C@H](C)NC(=O)[C@H](CCCNC(=N)N)NC(=O)[C@H](C)NC(=O)[C@H](CCCCN)NC(=O)[C@H](CC(=O)O)NC(=O)[C@@H](NC(=O)[C@H](CO)NC(=O)[C@@H]1CCCN1C(=O)[C@@H](N)CO)C(C)C)C(=O)O` [SMCY peptide] (H-SPSVDKARAEL-OH; N-terminus and C-terminus assumed), the IC50 [1] is reported as 34 nM and the EC50 [2] is reported as 0.01 nM.

“FIDSYICQV (listed as Homo sapiens) [SMCY-encoded peptide recognized by HLA-A2.1 restricted H-Y specific T cell clones]” was tested, and the “recognition by HLA-A2.1 restricted H-Y specific T cell clones” value [3] was “recognize”.
